{
  "source": "ChEMBL document CHEMBL5696442",
  "about": "“Discovery of type II inhibitors of TGFβ-activated kinase 1 (TAK1) and mitogen-activated protein kinase kinase kinase kinase 2 (MAP4K2)” (J Med Chem, 2015)",
  "key": {"[1]": {"molecular_target": "Calcium/calmodulin-dependent protein kinase type 1 (Homo sapiens) (UniProt Q14012)", "sequence (Q14012 whole entry, looked up)": "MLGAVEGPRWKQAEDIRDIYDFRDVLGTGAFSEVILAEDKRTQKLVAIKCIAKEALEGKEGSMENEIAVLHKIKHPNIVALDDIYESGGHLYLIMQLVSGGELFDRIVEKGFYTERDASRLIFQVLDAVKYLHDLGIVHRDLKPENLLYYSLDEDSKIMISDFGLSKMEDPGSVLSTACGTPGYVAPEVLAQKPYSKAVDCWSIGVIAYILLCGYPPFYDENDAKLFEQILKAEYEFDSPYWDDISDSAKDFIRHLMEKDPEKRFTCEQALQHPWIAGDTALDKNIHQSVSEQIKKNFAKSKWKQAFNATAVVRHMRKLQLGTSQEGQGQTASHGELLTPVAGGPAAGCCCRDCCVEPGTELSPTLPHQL", "assay": "Inhibition of CaMK1a Lys1 labeling site in human Huh-7 cells at 1 uM by KiNativ Profiling analysis relative to control", "assay_type": "cell-based"}, "[2]": {"molecular_target": "Serine/threonine-protein kinase Nek7 (Homo sapiens) (UniProt Q8TDX7)", "sequence (Q8TDX7 whole entry, looked up)": "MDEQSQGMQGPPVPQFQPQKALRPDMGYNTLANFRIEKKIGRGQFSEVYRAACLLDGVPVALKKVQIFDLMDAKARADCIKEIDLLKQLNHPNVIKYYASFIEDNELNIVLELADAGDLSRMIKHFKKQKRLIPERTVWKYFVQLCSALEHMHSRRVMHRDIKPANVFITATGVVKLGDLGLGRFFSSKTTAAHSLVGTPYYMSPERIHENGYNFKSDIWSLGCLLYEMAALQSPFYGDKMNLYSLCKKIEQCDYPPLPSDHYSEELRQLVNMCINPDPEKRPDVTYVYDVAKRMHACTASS", "assay": "Inhibition of NEK7 Lys1 labeling site in human Huh-7 cells at 1 uM by KiNativ Profiling analysis relative to control", "assay_type": "cell-based"}, "[3]": {"molecular_target": "Casein kinase II subunit alpha' (Homo sapiens) (UniProt P19784)", "assay": "Inhibition of CSNK2A2 (unknown origin) at 10 uM by Ambit Kinomescan binding assay"}, "[4]": {"molecular_target": "Ephrin type-B receptor 3 (Homo sapiens) (UniProt P54753)", "sequence (P54753 whole entry)": "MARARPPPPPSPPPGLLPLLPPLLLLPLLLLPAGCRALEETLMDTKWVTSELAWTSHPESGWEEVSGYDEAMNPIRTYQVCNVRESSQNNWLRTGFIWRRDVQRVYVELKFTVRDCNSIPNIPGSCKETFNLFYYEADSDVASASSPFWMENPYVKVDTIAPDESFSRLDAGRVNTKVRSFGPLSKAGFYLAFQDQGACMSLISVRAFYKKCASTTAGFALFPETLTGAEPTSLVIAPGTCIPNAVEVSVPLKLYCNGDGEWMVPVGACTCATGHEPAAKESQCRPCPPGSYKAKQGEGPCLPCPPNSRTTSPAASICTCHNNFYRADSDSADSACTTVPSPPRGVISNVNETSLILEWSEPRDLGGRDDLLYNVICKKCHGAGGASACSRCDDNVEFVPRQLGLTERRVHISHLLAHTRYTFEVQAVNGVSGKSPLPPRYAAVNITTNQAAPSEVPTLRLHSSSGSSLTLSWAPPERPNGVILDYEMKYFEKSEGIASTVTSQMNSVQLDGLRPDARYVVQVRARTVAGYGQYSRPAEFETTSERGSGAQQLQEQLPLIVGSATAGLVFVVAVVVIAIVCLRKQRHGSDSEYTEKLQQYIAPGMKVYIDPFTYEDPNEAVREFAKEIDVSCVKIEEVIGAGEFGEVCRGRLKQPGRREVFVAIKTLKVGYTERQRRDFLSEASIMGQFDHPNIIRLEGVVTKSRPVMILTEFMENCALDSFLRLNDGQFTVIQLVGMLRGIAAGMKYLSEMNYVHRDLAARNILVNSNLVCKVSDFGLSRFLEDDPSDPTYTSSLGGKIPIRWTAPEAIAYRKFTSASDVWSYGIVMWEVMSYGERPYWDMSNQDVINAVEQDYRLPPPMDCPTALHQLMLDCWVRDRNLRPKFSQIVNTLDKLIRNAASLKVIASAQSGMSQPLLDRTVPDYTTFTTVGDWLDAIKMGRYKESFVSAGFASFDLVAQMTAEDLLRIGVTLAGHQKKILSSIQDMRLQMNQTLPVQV", "assay": "Inhibition of EPHB3 (unknown origin) at 10 uM by Ambit Kinomescan binding assay"}, "[5]": {"system": "eIF-2-alpha kinase GCN2 (Homo sapiens), Q9P2K8 [S808G]", "assay": "Inhibition of GCN2 kinase domain S808G mutant (unknown origin) at 10 uM by Ambit Kinomescan binding assay"}, "[6]": {"molecular_target": "T1, Phosphatidylinositol 5-phosphate 4-kinase type-2 beta (Homo sapiens) (UniProt P78356)", "T1 sequence (whole entry)": "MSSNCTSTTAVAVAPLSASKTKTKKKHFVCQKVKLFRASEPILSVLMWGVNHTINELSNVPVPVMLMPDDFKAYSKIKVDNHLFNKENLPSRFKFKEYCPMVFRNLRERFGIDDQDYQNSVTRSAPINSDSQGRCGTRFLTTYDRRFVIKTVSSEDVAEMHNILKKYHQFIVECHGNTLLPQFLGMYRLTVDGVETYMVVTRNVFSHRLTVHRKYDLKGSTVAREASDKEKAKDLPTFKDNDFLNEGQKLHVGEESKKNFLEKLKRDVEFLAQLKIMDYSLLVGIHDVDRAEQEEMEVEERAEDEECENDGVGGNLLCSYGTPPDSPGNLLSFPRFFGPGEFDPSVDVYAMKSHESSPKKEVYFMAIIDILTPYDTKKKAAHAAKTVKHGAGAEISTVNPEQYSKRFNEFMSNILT", "assay": "Inhibition of PIP5K2B (unknown origin) at 10 uM by Ambit Kinomescan binding assay"}, "[7]": {"molecular_target": "Calcium/calmodulin-dependent protein kinase type II subunit delta (Homo sapiens) (UniProt Q13557)", "sequence (Q13557 whole entry)": "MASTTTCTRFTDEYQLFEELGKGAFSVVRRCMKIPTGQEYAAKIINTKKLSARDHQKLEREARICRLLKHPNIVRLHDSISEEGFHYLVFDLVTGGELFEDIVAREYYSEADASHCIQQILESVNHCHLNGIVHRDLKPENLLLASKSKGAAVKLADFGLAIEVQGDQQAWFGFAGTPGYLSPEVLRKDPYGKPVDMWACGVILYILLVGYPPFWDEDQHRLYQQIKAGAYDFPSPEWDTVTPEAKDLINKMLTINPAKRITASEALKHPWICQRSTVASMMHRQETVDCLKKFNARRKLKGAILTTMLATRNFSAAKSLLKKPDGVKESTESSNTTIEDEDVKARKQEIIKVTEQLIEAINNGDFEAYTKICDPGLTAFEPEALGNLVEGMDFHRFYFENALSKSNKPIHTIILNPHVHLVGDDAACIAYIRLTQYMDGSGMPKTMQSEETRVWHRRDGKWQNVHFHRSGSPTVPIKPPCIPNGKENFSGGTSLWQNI", "assay": "Inhibition of CaMK2d Lys1 labeling site in human A-375 cells at 5 uM by KiNativ Profiling analysis relative to control", "assay_type": "cell-based"}, "[8]": {"molecular_target": "T2, Aurora kinase A (Homo sapiens) (UniProt O14965)", "T2 sequence (whole entry)": "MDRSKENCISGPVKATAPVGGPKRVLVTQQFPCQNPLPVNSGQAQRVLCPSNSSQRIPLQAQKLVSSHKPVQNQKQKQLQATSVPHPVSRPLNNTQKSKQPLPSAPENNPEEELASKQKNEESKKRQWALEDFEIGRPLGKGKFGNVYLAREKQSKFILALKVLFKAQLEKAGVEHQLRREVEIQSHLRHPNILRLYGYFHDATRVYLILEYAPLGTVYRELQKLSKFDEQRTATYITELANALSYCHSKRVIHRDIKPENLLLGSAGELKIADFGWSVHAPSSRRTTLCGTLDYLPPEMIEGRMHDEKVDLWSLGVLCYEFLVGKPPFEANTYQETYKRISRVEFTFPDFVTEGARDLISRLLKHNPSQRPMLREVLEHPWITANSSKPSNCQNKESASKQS", "assay": "Inhibition of AurA K2 labeling site harbouring VIHRDIKPENLLLGSAGELK in human Huh-7 cells at 10 uM by KiNativ Profiling analysis relative to control", "assay_type": "cell-based"}, "[9]": {"molecular_target": "Cyclin-dependent kinase 2 (Homo sapiens) (UniProt P24941)", "assay": "Inhibition of CDK2 K2 labeling site in human Huh-7 cells at 10 uM by KiNativ Profiling analysis relative to control", "assay_type": "cell-based"}, "[10]": {"molecular_target": "Interferon-induced, double-stranded RNA-activated protein kinase (Homo sapiens) (UniProt P19525)", "assay": "Inhibition of PKR K2 labeling site in human Huh-7 cells at 10 uM by KiNativ Profiling analysis relative to control", "assay_type": "cell-based"}, "[11]": {"molecular_target": "Tyrosine-protein kinase Fes/Fps (Homo sapiens, UniProt P07332)", "sequence (P07332 whole entry)": "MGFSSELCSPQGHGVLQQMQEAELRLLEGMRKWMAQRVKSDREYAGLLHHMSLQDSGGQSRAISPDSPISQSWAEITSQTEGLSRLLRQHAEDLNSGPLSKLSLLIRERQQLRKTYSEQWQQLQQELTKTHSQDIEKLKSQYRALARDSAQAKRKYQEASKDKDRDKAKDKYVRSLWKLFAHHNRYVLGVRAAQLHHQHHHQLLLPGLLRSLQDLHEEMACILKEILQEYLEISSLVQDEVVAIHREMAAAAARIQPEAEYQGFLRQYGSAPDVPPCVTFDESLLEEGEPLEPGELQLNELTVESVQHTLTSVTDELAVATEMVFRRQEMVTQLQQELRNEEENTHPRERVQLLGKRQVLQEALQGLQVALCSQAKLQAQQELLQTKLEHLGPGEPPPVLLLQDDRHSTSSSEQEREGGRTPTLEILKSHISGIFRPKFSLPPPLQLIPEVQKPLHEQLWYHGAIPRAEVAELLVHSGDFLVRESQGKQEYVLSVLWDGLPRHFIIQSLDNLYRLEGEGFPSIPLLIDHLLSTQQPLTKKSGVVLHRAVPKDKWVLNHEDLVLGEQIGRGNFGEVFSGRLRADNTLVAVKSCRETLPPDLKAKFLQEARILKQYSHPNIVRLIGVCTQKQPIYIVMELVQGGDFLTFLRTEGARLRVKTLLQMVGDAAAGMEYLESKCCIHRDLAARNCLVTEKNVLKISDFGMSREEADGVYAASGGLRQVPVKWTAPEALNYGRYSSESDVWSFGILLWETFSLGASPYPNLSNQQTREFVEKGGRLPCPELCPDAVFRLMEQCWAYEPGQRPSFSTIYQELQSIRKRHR", "assay": "Inhibition of FES K1 labeling site in human Huh-7 cells at 1 uM by KiNativ Profiling analysis relative to control", "assay_type": "cell-based"}, "[12]": {"molecular_target": "Proto-oncogene tyrosine-protein kinase Src (Homo sapiens, UniProt P12931)", "sequence (P12931 2-536 limits assumed)": "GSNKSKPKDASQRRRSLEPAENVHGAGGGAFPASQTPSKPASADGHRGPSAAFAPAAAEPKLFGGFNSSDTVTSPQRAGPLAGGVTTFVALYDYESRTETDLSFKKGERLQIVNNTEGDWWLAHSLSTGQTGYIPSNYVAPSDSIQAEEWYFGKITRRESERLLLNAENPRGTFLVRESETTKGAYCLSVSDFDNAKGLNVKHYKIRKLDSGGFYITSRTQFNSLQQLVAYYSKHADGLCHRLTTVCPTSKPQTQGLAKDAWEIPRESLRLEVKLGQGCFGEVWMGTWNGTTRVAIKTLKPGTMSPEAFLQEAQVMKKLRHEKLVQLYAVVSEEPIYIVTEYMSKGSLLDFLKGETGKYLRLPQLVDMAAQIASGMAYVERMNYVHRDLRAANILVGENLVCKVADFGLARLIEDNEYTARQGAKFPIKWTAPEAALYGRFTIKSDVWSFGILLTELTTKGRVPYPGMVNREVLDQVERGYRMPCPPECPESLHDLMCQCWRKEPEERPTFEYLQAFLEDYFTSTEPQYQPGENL", "assay": "Inhibition of SRC ACT labeling site in human Huh-7 cells at 1 uM by KiNativ Profiling analysis relative to control", "assay_type": "cell-based"}, "[13]": {"molecular_target": "c-Jun N-terminal kinase, JNK (Homo sapiens) (UniProt P45983+P53779+P45984)", "assay": "Inhibition of JNK1/2/3 K2 labeling site in human Huh-7 cells at 1 uM by KiNativ Profiling analysis relative to control", "assay_type": "cell-based"}, "[14]": {"assay": "Inhibition of NEK6/7 K2 labeling site harbouring DIKPANVFITATGVVK in human Huh-7 cells at 1 uM by KiNativ Profiling analysis relative to control", "details": "condition cancer"}, "[15]": {"molecular_target": "RPS6KA1/RPS6KA2/RPS6KA3 (Homo sapiens) (UniProt P51812+Q15349+Q15418)", "assay": "Inhibition of RSK1/2/3 Domain 1 K2 labeling site harbouring DLKPENILLDEEGHIK in human Huh-7 cells at 1 uM by KiNativ Profiling analysis relative to control", "assay_type": "cell-based"}, "[16]": {"molecular_target": "SNF-related serine/threonine-protein kinase (Homo sapiens) (UniProt Q9NRH2)", "sequence (Q9NRH2 whole entry)": "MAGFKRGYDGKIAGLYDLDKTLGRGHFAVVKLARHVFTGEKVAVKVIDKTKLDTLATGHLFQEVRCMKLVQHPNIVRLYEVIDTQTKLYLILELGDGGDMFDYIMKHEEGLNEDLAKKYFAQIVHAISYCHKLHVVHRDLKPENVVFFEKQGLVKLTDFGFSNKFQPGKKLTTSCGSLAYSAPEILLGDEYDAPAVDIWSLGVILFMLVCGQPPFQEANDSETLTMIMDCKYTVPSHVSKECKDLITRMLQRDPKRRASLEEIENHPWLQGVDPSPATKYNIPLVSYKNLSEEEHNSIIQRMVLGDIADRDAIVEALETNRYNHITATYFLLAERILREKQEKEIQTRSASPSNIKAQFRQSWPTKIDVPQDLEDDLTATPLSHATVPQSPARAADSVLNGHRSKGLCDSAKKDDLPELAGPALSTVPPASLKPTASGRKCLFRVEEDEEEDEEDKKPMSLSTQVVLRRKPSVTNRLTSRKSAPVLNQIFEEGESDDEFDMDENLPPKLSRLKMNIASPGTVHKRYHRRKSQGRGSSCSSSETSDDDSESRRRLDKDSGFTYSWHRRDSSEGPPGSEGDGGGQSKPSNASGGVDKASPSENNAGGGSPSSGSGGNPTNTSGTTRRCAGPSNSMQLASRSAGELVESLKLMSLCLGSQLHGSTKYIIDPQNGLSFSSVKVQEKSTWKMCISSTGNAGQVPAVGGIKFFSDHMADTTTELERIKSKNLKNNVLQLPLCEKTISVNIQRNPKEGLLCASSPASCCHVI", "assay": "Inhibition of SNRK (unknown origin) at 1 uM by Ambit Kinomescan binding assay relative to control"}, "[17]": {"molecular_target": "TGF-beta receptor type-2 (Homo sapiens) (UniProt P37173)", "sequence (P37173 whole entry)": "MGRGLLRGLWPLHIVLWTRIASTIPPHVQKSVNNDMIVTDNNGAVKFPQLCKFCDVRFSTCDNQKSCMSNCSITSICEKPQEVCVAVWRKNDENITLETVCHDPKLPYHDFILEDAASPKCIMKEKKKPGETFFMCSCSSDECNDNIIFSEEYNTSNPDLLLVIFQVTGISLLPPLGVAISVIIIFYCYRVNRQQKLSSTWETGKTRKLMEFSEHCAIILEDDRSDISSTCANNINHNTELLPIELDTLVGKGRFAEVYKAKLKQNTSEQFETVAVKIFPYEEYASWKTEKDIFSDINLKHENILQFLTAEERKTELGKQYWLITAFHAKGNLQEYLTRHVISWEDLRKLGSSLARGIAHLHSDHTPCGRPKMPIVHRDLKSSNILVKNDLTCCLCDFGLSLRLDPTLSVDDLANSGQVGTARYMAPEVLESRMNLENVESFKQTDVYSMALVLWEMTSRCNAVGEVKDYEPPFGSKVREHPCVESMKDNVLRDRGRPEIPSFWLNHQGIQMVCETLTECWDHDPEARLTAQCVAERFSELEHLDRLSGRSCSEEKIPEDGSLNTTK", "assay": "Inhibition of TGFBR2 (unknown origin) at 1 uM by Ambit Kinomescan binding assay relative to control"}},
  "note": "Active and inactive are the calls of the source. No cut-off for these calls is given here.",
  "data": [
    {"smiles": "CNc1cc(Oc2cc(C(=O)Nc3cc(N4CCN(C)CC4)cc(C(F)(F)F)c3)ccc2C)ncn1", "values": [
      {"measurement": "inhibition", "setting": "[1]", "result": 3.6, "unit": "%"},
      {"measurement": "inhibition", "setting": "[2]", "result": 7.6, "unit": "%"}
    ]},
    {"smiles": "CCN1CCN(Cc2ccc(NC(=O)c3ccc(C)c(Oc4ccnc5[nH]ccc45)c3)cc2C(F)(F)F)CC1", "values": [
      {"measurement": "inhibition", "setting": "[3]", "result": "inactive"},
      {"measurement": "inhibition", "setting": "[4]", "result": "inactive"},
      {"measurement": "inhibition", "setting": "[5]", "result": "inactive"},
      {"measurement": "inhibition", "setting": "[6]", "result": "inactive"},
      {"measurement": "inhibition", "setting": "[7]", "result": 18.9, "unit": "%"},
      {"measurement": "inhibition", "setting": "[8]", "result": "inactive"},
      {"measurement": "inhibition", "setting": "[9]", "result": 16.2, "unit": "%"},
      {"measurement": "inhibition", "setting": "[10]", "result": 7.9, "unit": "%"},
      {"measurement": "inhibition", "setting": "[11]", "result": -4.5, "unit": "%"},
      {"measurement": "inhibition", "setting": "[12]", "result": -0.3, "unit": "%"},
      {"measurement": "inhibition", "setting": "[13]", "result": 29.4, "unit": "%"},
      {"measurement": "inhibition at 1 µM", "setting": "[14]", "result": -13.1, "unit": "%"},
      {"measurement": "inhibition", "setting": "[15]", "result": 5, "unit": "%"}
    ]},
    {"smiles": "CCN1CCN(Cc2ccc(NC(=O)c3ccc(C)c(/C=C/c4cnc5[nH]ccc5c4OC)c3)cc2C(F)(F)F)CC1", "values": [
      {"measurement": "inhibition", "setting": "[16]", "result": 100, "unit": "%"},
      {"measurement": "inhibition", "setting": "[17]", "result": 52, "unit": "%"}
    ]}
  ]
}
